Among the data in PubChem BioAssay (NCI) are TGI values, retold here.

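These data come from cells grown in 96-well plates and exposed to compound for 48 hours at five concentrations. The concentration for full growth arrest is given as TGI.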

Some test systems named below: ACHN renal; HOP-62 NSCLC; HOP-92 NSCLC; K-562 leukemia; LOX IMVI melanoma; MALME-3M melanoma; OVCAR-5 ovarian; RPMI-8226 leukemia; SK-MEL-28 melanoma; SK-OV-3 ovarian; U251 CNS; UACC-257 melanoma; EKVX NSCLC.
What all share (experiment): DTP human tumour cell line panel, 48 h

Broadly, the TGI is the concentration at which net growth stops. A higher TGI goes with lower sensitivity of the cells. Take `O=S(=O)(c1ccccc1)n1cnc(CCc2ccccc2)n1`: the TGI with ACHN renal, in the assay with HOP-62 NSCLC, in the assay with HOP-92 NSCLC, in the assay on K-562 leukemia, in the assay with LOX IMVI melanoma and in the assay with MALME-3M melanoma was greater than 100 µM each time. Moreover, the TGI in the assay on OVCAR-5 ovarian, with RPMI-8226 leukemia, with SK-MEL-28 melanoma, with SK-OV-3 ovarian, with U251 CNS and in the assay on UACC-257 melanoma was greater than 100 µM each time.
On to `COC(=O)NN/C=C(\C=Nc1ccccc1)[N+](=O)[O-]`, for which the TGI in the assay with ACHN renal, in the assay on EKVX NSCLC, in the assay with HOP-62 NSCLC, in the assay on HOP-92 NSCLC, with K-562 leukemia and in the assay on LOX IMVI melanoma was greater than 100 µM throughout. Also, the TGI with RPMI-8226 leukemia, in the assay with SK-MEL-28 melanoma, with SK-OV-3 ovarian, with U251 CNS and with UACC-257 melanoma was greater than 100 µM each time.
For the molecule `CCOC(=O)c1ncn2c1[nH]c(=O)c1ccccc12`, the TGI with ACHN renal, in the assay on EKVX NSCLC, with K-562 leukemia, with LOX IMVI melanoma, in the assay with MALME-3M melanoma and in the assay on OVCAR-5 ovarian was greater than 100 µM in each case. Further, the TGI with RPMI-8226 leukemia, in the assay with SK-MEL-28 melanoma and with U251 CNS was greater than 100 µM in each case.
For the molecule `C=C(C)C1Cc2c(cc(OC)c3c(=O)c4ccccc4n(C)c23)O1` (stereo unspecified), the TGI with ACHN renal, in the assay with EKVX NSCLC, in the assay on HOP-62 NSCLC, with HOP-92 NSCLC, in the assay on K-562 leukemia and with LOX IMVI melanoma was greater than 100 µM throughout. The TGI with MALME-3M melanoma, in the assay with OVCAR-5 ovarian, with RPMI-8226 leukemia, in the assay with SK-MEL-28 melanoma, in the assay with SK-OV-3 ovarian and in the assay with U251 CNS was greater than 100 µM in each case. In the assay with UACC-257 melanoma, the TGI is greater than 100 µM.
For `CC1(Br)S(=O)(=O)OCCOS1(=O)=O`, the TGI with ACHN renal, with EKVX NSCLC, with HOP-62 NSCLC, in the assay with HOP-92 NSCLC, in the assay with K-562 leukemia and in the assay with LOX IMVI melanoma was greater than 100 µM each time. Further, the TGI in the assay with MALME-3M melanoma, in the assay with OVCAR-5 ovarian, in the assay with RPMI-8226 leukemia, in the assay with SK-MEL-28 melanoma, with SK-OV-3 ovarian and in the assay with U251 CNS was greater than 100 µM throughout. In the assay with UACC-257 melanoma, the TGI was greater than 100 µM.
As to `CC(=O)C(CN(C)Cc1ccccc1)C(c1ccccc1)c1c(O)c2ccccc2oc1=O` (stereo unspecified), the TGI in the assay with ACHN renal, with EKVX NSCLC, in the assay on HOP-62 NSCLC, with HOP-92 NSCLC, in the assay on K-562 leukemia and in the assay on LOX IMVI melanoma was greater than 100 µM each time. For the same molecule, the TGI in the assay with MALME-3M melanoma, in the assay on OVCAR-5 ovarian, with RPMI-8226 leukemia, with SK-MEL-28 melanoma, in the assay on SK-OV-3 ovarian and with U251 CNS was greater than 100 µM throughout. The molecule also returned a TGI in the assay with UACC-257 melanoma greater than 100 µM.
On to `OC1=CN=C(C2CC2)Oc2ccccc21`, for which the TGI with ACHN renal, in the assay on EKVX NSCLC, in the assay on HOP-62 NSCLC, with HOP-92 NSCLC, in the assay with K-562 leukemia and in the assay with LOX IMVI melanoma was greater than 100 µM throughout. Further, the TGI in the assay with MALME-3M melanoma, in the assay on RPMI-8226 leukemia, in the assay with SK-MEL-28 melanoma, in the assay on SK-OV-3 ovarian, in the assay on U251 CNS and in the assay with UACC-257 melanoma was greater than 100 µM in each case.
Regarding `Cc1ccc(S(=O)(=O)C(C#N)c2nc3ccccc3nc2N2CCOCC2)cc1` (stereo unspecified), the TGI in the assay on ACHN renal is greater than 100 µM; with EKVX NSCLC, greater than 100 µM; in the assay with HOP-62 NSCLC it was 44.6 µM; in the assay with LOX IMVI melanoma, 57.3 µM; with MALME-3M melanoma, 63.5 µM; in the assay on OVCAR-5 ovarian, greater than 100 µM. The TGI was 87.6 µM in the assay on RPMI-8226 leukemia; 51.9 µM with SK-MEL-28 melanoma; greater than 100 µM with SK-OV-3 ovarian; 35.8 µM in the assay with U251 CNS; greater than 100 µM with UACC-257 melanoma.
Consider `C=CC(Br)(CBr)CCC(Br)C(C)(C)Br` (stereo unspecified), for which the TGI with ACHN renal came to 25.3 µM; with HOP-62 NSCLC, 36.1 µM; in the assay on HOP-92 NSCLC, 29.9 µM; in the assay with K-562 leukemia, 66 µM; in the assay with LOX IMVI melanoma it was 25.5 µM; in the assay with MALME-3M melanoma it was 30.4 µM. The TGI is 33.2 µM in the assay with OVCAR-5 ovarian; 11.9 µM in the assay on RPMI-8226 leukemia; 29.8 µM in the assay with SK-MEL-28 melanoma; 35.7 µM with SK-OV-3 ovarian; 27.6 µM in the assay on U251 CNS; 27.6 µM in the assay on UACC-257 melanoma.
Regarding `Cc1no[n+]([O-])c1/C=N/NS(=O)(=O)c1ccccc1`, the TGI with EKVX NSCLC, in the assay on HOP-62 NSCLC, in the assay with HOP-92 NSCLC, in the assay on K-562 leukemia, in the assay with MALME-3M melanoma and in the assay on OVCAR-5 ovarian was greater than 100 µM each time. Further, the TGI in the assay with RPMI-8226 leukemia, in the assay with SK-MEL-28 melanoma, with SK-OV-3 ovarian and in the assay on U251 CNS was greater than 100 µM each time.
